The record followed here is ChEMBL document CHEMBL5727982, “Inhibitors of cyclin-dependent kinase 7 (CDK7)” (2020).

The target in the assay is Cyclin-dependent kinase 7/ cyclin H (Homo sapiens, UniProt P50613). Nature of the assay: In Vitro Kinase Assay: In vitro kinase assays with immunoprecipitated proteins (or recombinant CAK complexes) were performed as follows. Kinase reactions were performed in 25 μL of final volume of reaction buffer (50 mM Hepes, pH 7.5, 150 mM NaCl, 10 mM MgCl2, 5% glycerol, 25 μM ATP, and 10 μCi of [γ-32P]ATP). Each reaction contained 1 μg of RNAP II. Incubation was at 30° C. for 30-45 min. Reactions were terminated by addition of 5 μL of 5×SDS-PAGE sample buffer and incubated at 95° C. for 5 min. Reactions were analyzed by SDS-PAGE, and the dried gel was exposed to film or PhosphorImager plate. The class given is protein-complex assay.
Sequence of Cyclin-dependent kinase 7/ cyclin H (P51946 whole entry): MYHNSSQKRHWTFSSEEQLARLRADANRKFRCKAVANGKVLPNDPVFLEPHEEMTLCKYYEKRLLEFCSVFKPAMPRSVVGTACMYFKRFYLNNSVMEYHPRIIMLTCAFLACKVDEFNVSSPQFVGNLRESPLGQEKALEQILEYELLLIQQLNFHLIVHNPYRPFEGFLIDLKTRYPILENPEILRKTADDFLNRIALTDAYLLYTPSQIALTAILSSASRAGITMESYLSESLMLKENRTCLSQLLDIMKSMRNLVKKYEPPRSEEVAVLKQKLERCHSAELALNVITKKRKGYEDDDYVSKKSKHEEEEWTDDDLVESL
Sequence of Cyclin-dependent kinase 7/ cyclin H (P50613 whole entry): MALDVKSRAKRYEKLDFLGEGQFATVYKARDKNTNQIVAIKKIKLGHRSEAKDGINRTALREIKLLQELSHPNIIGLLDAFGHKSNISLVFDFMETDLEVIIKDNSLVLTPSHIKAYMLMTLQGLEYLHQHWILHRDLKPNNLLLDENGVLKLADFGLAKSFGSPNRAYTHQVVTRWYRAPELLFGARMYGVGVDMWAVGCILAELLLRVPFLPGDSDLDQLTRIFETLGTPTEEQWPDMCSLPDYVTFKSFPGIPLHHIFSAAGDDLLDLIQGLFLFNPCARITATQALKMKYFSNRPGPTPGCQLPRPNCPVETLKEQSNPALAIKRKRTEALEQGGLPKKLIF

Molecules are shown by their SMILES.

With `CN(C)C/C=C/C(=O)Nc1ccc(S(=O)(=O)Nc2cccc(Nc3ncc(Cl)c(-c4c[nH]c5ccccc45)n3)c2)cc1`, the 50% inhibitory concentration (IC50) is under 100 nM.
